Data as given in PubChem BioAssay AID2060885 (Molecular Pharmacology Branch, DTP, NCI, 2025).
pIC50: −log10 of the molar value. Several values for one entry are separate records, joined by “and”; a condition that tells them apart may be missing. Equal values may be shown once.

Tested on: NCI-H23 complex spheroids with HUVEC/MSC, viability
Test: Anticancer human tumor NCI-H23 cell line growth inhibition [RAS];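 further: spheroids exposed to compound for 7 days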;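 on viability, T/C: 100% = DMSO vehicle control viability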
Conditions: for viability, T/C: stronger effect = lower value
From the text: RAS pathway inhibitors in Combinations in Complex Spheroids
A high-throughput screen of multi-cell type tumor spheroids was designed to identify active combinations of RAS pathway inhibitors and targeted small molecules. Complex spheroids include a stromal component modeled by human endothelial cells (HUVEC) and fibroblasts modeled by human mesenchymal stem cells (MSCs). The concentration ranges selected for each drug and investigational agent were based upon clinically achievable concentrations if the clinical Cmax of the agent was known.
Compounds. The drugs and investigational agents: abemaciclib (NSC768073), cobimetinib (NSC768068), divarasib (GDC6063, NSC841802), docetaxel (NSC628503), GDC-1971 (RLY-1971, NSC841576), gemcitabine (NSC613327), inavolisib (NSC800729), ipatasertib (NSC767898), KB-0742 (NSC834161), MRTX-1133 (NSC836407), osimertinib (NSC779217), RMC-4630 (NSC839698), RMC-6236 (NSC851965), RMC-6291 (NSC852671), Ro-3306 (NSC812927), sapanisertib (NSC764658), SN-38 (NSC673596), staurosporine (NSC755774), SY5609 (NSC837396), and tovorafenib (DAY101, NSC766906), were obtained from the National Cancer Institute (NCI) Developmental Therapeutics Program Chemical Repository. The FDA-approved anticancer drug set is available from the NCI Developmental Therapeutics Program. […] The stock solutions were prepared in dimethyl sulfoxide (DMSO, Sigma-Aldrich, St. Louis, MO, cat. D2650) at 800-fold the tested concentration and stored at -70 degrees C prior to their use. All drugs and investigational agents were tested over a range starting from a high concentration at or near the clinical Cmax and decreasing in half-log increments. If the clinical Cmax for an agent had not been determined, the highest concentration tested was 10 microM.
Cell Culture. All cells were maintained in an incubator at 37 degrees C and 5% CO2 with 95% humidity. The PDC lines were cultured according to standard operating procedures established by the NCI PDMR. All PDCs were thawed and cultured in Matrigel-coated flasks prepared with a working solution of 1X Ham's F-12 nutrient mix, without supplementation (Invitrogen, Waltham, MA, cat. 11765054), 100 U/mL penicillin-streptomycin (Invitrogen, cat. 15140122), and 2.5% Matrigel (Corning Inc., Corning, NY, cat. 354248) for the first three passages. The 362531-283-R-J2-PDC and 782815-120-R-J1-PDC lines were cultured in 6C/Colon 1B media, which includes advanced DMEM/F-12 (Thermo Fisher Scientific, cat. 12634028), 10 mM HEPES (Thermo Fisher Scientific, cat. 15630080), 1X GlutaMAX supplement (Thermo Fisher Scientific, cat. 35050061), 0.1 mg/mL primocin (InvivoGen, San Diego, CA, cat. ant-pm-2), 10% defined fetal bovine serum, heat inactivated (HyClone Laboratories Inc., Logan, UT, cat. SH30070.03HI), 50% L-WRN conditioned media (ATCC, cat. CRL-3276), 1.25 mM N-Acetyl-L-cysteine (Sigma-Aldrich, cat. A9165), 10 mM nicotinamide (Sigma-Aldrich, cat. N0636), 1X B-27 supplement (Thermo Fisher Scientific, cat. 17504044), 1X N-2 supplement (Thermo Fisher Scientific, cat. 17502048), 50 ng/mL human EGF (Thermo Fisher Scientific, cat. PHG0311), and 10 microM Y-27632 dihydrochloride (Tocris Bioscience, cat. 1254). The K12877-001-R-J1-PDC line was cultured in 6I media, which includes all 6C/Colon 1B media plus 10 ng/mL human FGF-10 (PeproTech, cat. 100-26), 1 ng/mL human FGF-2 (PeproTech, cat. 100-18B), 1 µM prostaglandin E2 (Tocris Bioscience, cat. 2296), […] hydrocortisone (Sigma-Aldrich, cat. H4001), and […] bovine insulin (Sigma-Aldrich, cat. I6634). The K86415-001-R-J1-PDC line was cultured in 6D media, which includes all 6C/Colon 1B media components minus the L-WRN conditioned media. The 485176-168-R4-J1-PDC was cultured in PANC media, which includes all 6C/Colon 1B media plus 100 ng/mL human FGF-10 (PeproTech, cat. 100-26), 500 nM SB-431542 (Selleckchem, cat. S1067), and 10 nM gastrin (Tocris Bioscience, cat. 3006). […]

**Q.** What does the source list for CC(Nc1ccc2c(c1)OCCn1cc(N3C(=O)OCC3C(F)F)nc1-2)C(N)=O (stereo not given) + CCn1c(-c2cc(N3CCN(C)CC3)cnc2C(C)OC)c2c3cc(ccc31)-c1csc(n1)CC(NC(=O)C1CC1C)C(=O)N1CCCC(N1)C(=O)OCC(C)(C)C2?
**A.** pIC50 (curve of first compound, second compound 0.000949 µM): > 7.50; pIC50 (curve of first compound, second compound 0.003 µM): > 7.50; pIC50 (curve of first compound, second compound 0.00949 µM): > 7.50; pIC50 (curve of first compound, second compound 0.03 µM): > 7.50; pIC50 (curve of first compound, second compound 0.0949 µM): > 7.50; pIC50 (curve of first compound, second compound 0.3 µM): > 7.50; viability, T/C (second compound 0.000949 µM, first compound 0.0316 µM): 38.9%; viability, T/C (second compound 0.000949 µM, first compound 0.1 µM): 34.7%; viability, T/C (second compound 0.000949 µM, first compound 0.316 µM): 29.4%; viability, T/C (second compound 0.000949 µM, first compound 1 µM): 35.1%; viability, T/C (second compound 0.000949 µM, first compound 3.16 µM): 33.6%; viability, T/C (second compound 0.000949 µM, first compound 10 µM): 21.6%; viability, T/C (second compound 0.003 µM, first compound 0.0316 µM): 34.9%; viability, T/C (second compound 0.003 µM, first compound 0.1 µM): 24.6%; viability, T/C (second compound 0.003 µM, first compound 0.316 µM): 25.3%; viability, T/C (second compound 0.003 µM, first compound 1 µM): 25.1%; viability, T/C (second compound 0.003 µM, first compound 3.16 µM): 23.1%; viability, T/C (second compound 0.003 µM, first compound 10 µM): 17.6%; viability, T/C (second compound 0.00949 µM, first compound 0.0316 µM): 31.1%; viability, T/C (second compound 0.00949 µM, first compound 0.1 µM): 24.5%; viability, T/C (second compound 0.00949 µM, first compound 0.316 µM): 21.1%; viability, T/C (second compound 0.00949 µM, first compound 1 µM): 22.5%; viability, T/C (second compound 0.00949 µM, first compound 3.16 µM): 23.3%; viability, T/C (second compound 0.00949 µM, first compound 10 µM): 16.7%; viability, T/C (second compound 0.03 µM, first compound 0.0316 µM): 25.5%; viability, T/C (second compound 0.03 µM, first compound 0.1 µM): 19.6%; viability, T/C (second compound 0.03 µM, first compound 0.316 µM): 19%; viability, T/C (second compound 0.03 µM, first compound 1 µM): 19.2%; viability, T/C (second compound 0.03 µM, first compound 3.16 µM): 13.9%; viability, T/C (second compound 0.03 µM, first compound 10 µM): 14.5%; viability, T/C (second compound 0.0949 µM, first compound 0.0316 µM): 16.9%; viability, T/C (second compound 0.0949 µM, first compound 0.1 µM): 14.9%; viability, T/C (second compound 0.0949 µM, first compound 0.316 µM): 13.6%; viability, T/C (second compound 0.0949 µM, first compound 1 µM): 15.2%; viability, T/C (second compound 0.0949 µM, first compound 3.16 µM): 10%; viability, T/C (second compound 0.0949 µM, first compound 10 µM): 10.8%; viability, T/C (second compound 0.3 µM, first compound 0.0316 µM): 14%; viability, T/C (second compound 0.3 µM, first compound 0.1 µM): 13.3%; viability, T/C (second compound 0.3 µM, first compound 0.316 µM): 12.8%; viability, T/C (second compound 0.3 µM, first compound 1 µM): 13%; viability, T/C (second compound 0.3 µM, first compound 3.16 µM): 11.9%; viability, T/C (second compound 0.3 µM, first compound 10 µM): 11.4%

**Q.** For CCn1c(-c2cccnc2C(C)OC)c2c3cc(ccc31)N1CCOC(CC(NC(=O)C(C(C)C)N(C)C(=O)C3(F)CCN(C(=O)C#CC(C)(C)N(C)C)CC3)C(=O)N3CCCC(N3)C(=O)OCC(C)(C)C2)C1 (stereo not given), which viability, T/C (compound 0.000949 µM) is on record?
**A.** 32.4% [middle of 8 runs]

**Q.** What about the viability, T/C (compound 0.00949 µM) of the same compound?
**A.** 30.6% [middle of 8 runs]

**Q.** And the viability, T/C (compound 0.03 µM)?
**A.** 31.6% [middle of 8 runs]

**Q.** And the viability, T/C (compound 0.0949 µM)?
**A.** 30.8% [middle of 8 runs]

**Q.** And the viability, T/C (compound 0.3 µM)?
**A.** 28.1% [middle of 8 runs]

**Q.** And the pIC50 (compound alone, run of 07/09/2024)?
**A.** > 9.02 and 8.23

**Q.** What does the source list for CCC(CC)c1cc(NC2CCC(N)C2)n2nccc2n1 (stereo not given)?
**A.** viability, T/C (compound 0.0316 µM): 106% and 101% and 105% (2×); viability, T/C (compound 0.1 µM): 108% [middle of 4 runs]; viability, T/C (compound 0.316 µM): 101% [middle of 4 runs]; viability, T/C (compound 1 µM): 88.2% [middle of 4 runs]; viability, T/C (compound 3.16 µM): 15.2% [middle of 4 runs]; viability, T/C (compound 10 µM): 0.91% [middle of 4 runs]; IC50 (curve of compound): 1.81 µM [middle of 4 runs]
